Assay results: patent US7026318B2 (Shionogi & Co., Ltd., priority 2000, dated 2006)
Read-outs that look alike come from different tables or passages of the source.

Experiments:
[1] = target: T1, human type II enzyme (sPLA2) (Homo sapiens, UniProt P14555); test: Inhibition test of human secretory phospholipase A2, chromogenic assay, type II enzyme; assay type: biochemical
T1 sequence (P14555 21-144): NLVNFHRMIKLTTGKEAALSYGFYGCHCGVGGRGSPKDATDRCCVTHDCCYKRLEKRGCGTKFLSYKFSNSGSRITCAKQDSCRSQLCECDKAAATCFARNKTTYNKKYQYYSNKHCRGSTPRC

[2] = target: T2, human type X sPLA2 (Homo sapiens, UniProt O15496); test: Inhibition test of human secretory phospholipase A2, chromogenic assay, type X enzyme; assay type: biochemical
T2 construct: made in house; unpurified culture supernatant
T2 sequence (O15496 43-165): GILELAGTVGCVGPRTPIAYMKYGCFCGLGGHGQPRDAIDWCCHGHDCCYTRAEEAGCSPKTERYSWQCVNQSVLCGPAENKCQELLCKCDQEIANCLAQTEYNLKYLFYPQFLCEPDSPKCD

[3] = target: T3, human type V sPLA2 (Homo sapiens, UniProt P39877); test: Inhibition test of human secretory phospholipase A2, chromogenic assay, type V enzyme; assay type: biochemical
T3 construct: made in house; unpurified culture supernatant
T3 sequence (P39877 21-138): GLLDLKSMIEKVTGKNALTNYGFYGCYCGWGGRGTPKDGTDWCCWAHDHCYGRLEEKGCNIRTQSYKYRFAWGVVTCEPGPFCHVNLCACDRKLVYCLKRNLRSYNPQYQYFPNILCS

[4] = target: human type I enzyme (sPLA2) (Homo sapiens, UniProt P04054); test: Inhibition test of human secretory phospholipase A2, chromogenic assay, type I enzyme; assay type: biochemical
Sequence of human type I enzyme (sPLA2) (P04054 23-148): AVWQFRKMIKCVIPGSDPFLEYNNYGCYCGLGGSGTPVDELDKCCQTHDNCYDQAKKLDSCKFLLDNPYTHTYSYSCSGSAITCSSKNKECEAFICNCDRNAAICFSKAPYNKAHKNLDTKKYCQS

[5] = target: T2, human type X sPLA2; test: Type X sPLA2-induced PGE2 production in human colon carcinoma HT-29 cells; assay type: cell-based; settings: compound 10 μM; TNF-α-treated HT-29 cells; 100 nM human type X sPLA2, 3 h; percentage of PGE2 produced by type X sPLA2 (no treatment group = 100)
Procedure: Examination 16: Effects of sPLA2 Inhibitors on Type X sPLA2-Induced PGE2 Production in Human Colon Carcinoma Cell Lines, HT-29 Cells.
HT-29 cells were seeded into 24-well plates at a density of 2.5×10^5 cells/well. After incubation for 24 h, the cells were washed three times with PBS and incubated with 30 ng/mL of recombinant human tumor necrosis factor-α (R&D Systems, Inc.) in DMEM medium supplemented with 10% fetal bovine serum for 18 h at 37° C. After washing with PBS, the cells were preincubated with or without test compounds (at a final concentration of 10 μM; dissolved in DMSO) in Hanks' buffered saline containing 0.1% BSA for 10 min at 37° C., and then stimulated with 100 nM purified human type X sPLA2 enzyme in a final volume of 0.5 mL. After incubation for 3 h at 37° C, the culture supernatant was collected following the centrifugation for the removal of floating cells, and its PGE2 content was quantified with an enzyme-immunoassay kit (Cayman Chemicals Co.). From each data, the value in the absence of type X sPLA2 was subtracted. The amount of PGE2 in the presence of each test compound was expressed as the percentage of the PGE2 content produced by the addition of type X sPLA2 enzyme.

[6] = target: T2, human type X sPLA2; test: Human type X sPLA2-induced oleic acid release in human colon carcinoma HT-29 cells; assay type: cell-based; settings: compound 10 μM, 100 nM human type X sPLA2, 30 min, percentage of the increase by type X sPLA2 (no treatment group = 100)
Procedure: Examination 15: Effects of sPLA2 Inhibitors on Human Type X sPLA2-Induced Oleic Acid Release in Human Colon Calcinoma Cell Lines, HT-29 Cells.
Human colon calcinoma cell lines, HT-29 cells (obtained from ATCC) were cultured in DMEM supplemented with 10% fetal calf serum. The cells were washed by phosphate-buffered saline (PBS), detached from culture plates by treatment with trypsin/EDTA solution and further washed by PBS. The resulting cells were resuspended in Hanks' buffered saline containing 0.1% bovine serum albumin (BSA) at a density of 12.5×10^6 cells/mL. Aliquots of the cell suspension (0.4 ml) were transferred into polypropylene tubes and test compounds dissolved in DMSO solution (final concentration; 10 μM) were added. After preincubation for 10 min at 37° C., 100 nM purified human type X sPLA2 enzyme (Hanasaki et al J. Biol. Chem. (1999) 274, 34203–34211) was added (final volume of 0.5 mL). After incubation for 30 min at 37° C., the reaction was stopped by the addition of 2 ml Dole's reagent (heptane:2-propanol:1M H2SO4=10:40:1, v/v/v).

[7] = target: T2, human type X sPLA2; test: Type X sPLA2-induced fatty acid release from isolated human lipoproteins (LDL); assay type: biochemical; settings: read-out: % of Inhibition (10 μM)
Procedure: Examination 17: Effects of sPLA2 Inhibitors on Type X sPLA2-Induced Fatty Acid Release From Isolated Human Lipoproteins.
LDL was isolated from human plasma by sequential ultracentrifugation method (Havel et al. J. Clin. Invest. 34,1345–1353 (1955)). LDL (0.5 mg/mL) was incubated with 10 nmol/L of human type X sPLA2 in the assay mixture containing 12.5 mmol/L Tris-HCl buffer (pH 8.0), 125 mg/L bovine serum albumin and 1 mmol/L calcium chloride for 4 hr at 37° C. Fatty acids released from lipoprotein were extracted by Dole's method (Dole et al. J. Biol. Chem. 235, 2595–2599 (1960)), labeled with 9-anthryldiazomethane according to a known method (Hanasaki et al., J. Biol. Chem. 274, 34203–34211 (1999)) and measured by detecting the fluorescence of labeled fatty acids using reverse-phase high performance chromatography (LiChroCART 125-4 Superspher 100 RP-18 column (Merck). For the inhibition assay of drugs, sPLA2 inhibitors (final concentration of 10 μM) were added at almost the same time as the addition of sPLA2 into the reaction solution. The results are presented in Table 10.

[8] = human sPLA2 type II, chromogenic assay, 30 min, read-out: IC50 type II
[9] = human sPLA2 type X (CHO supernatant), chromogenic assay, 30 min, read-out: IC50 type X
[10] = human sPLA2 type V (CHO supernatant), chromogenic assay, 45 min, read-out: IC50 type V
[11] = recombinant human sPLA2 type I, chromogenic assay, 30 min, read-out: IC50 type I

SMILES	melting point [°C]	IC50 [1, 8] [µM]	IC50 [3, 10] [µM]	IC50 [4, 11] [µM]	other results
CCS(=O)(=O)NC(=O)COc1cccc2c1c(C(=O)C(N)=O)c(CC(C)C)n2Cc1ccccc1	200 to 201				
CCCS(=O)(=O)NC(=O)COc1cccc2c1c(C(=O)C(N)=O)c(CC(C)C)n2Cc1ccccc1	181 to 183				
CC(C)Cc1c(C(=O)C(N)=O)c2c(OCC(=O)NS(=O)(=O)C(C)C)cccc2n1Cc1ccccc1	218.5 to 220				
CCCCS(=O)(=O)NC(=O)COc1cccc2c1c(C(=O)C(N)=O)c(CC(C)C)n2Cc1ccccc1	219.5 to 221				
Cc1cn2c(Cc3ccccc3)c(CC(C)C)c(C(=O)C(N)=O)c2c(OCC(=O)O)n1 [Compound I-1]	206 to 208	> 1	> 1	> 0.7	IC50 [2, 9]: 0.032 µM
Cc1cn2c(CC3CCCCC3)c(CC(C)C)c(C(=O)C(N)=O)c2c(OCC(=O)O)n1 [Compound I-2]	209 to 210	> 1	> 1	> 0.7	IC50 [2, 9]: 0.043 µM
Cc1cn2c(CC3CCCC3)c(CC(C)C)c(C(=O)C(N)=O)c2c(OCC(=O)O)n1 [Compound I-3]	193 to 194.5	> 1	> 1	> 0.7	IC50 [2, 9]: 0.048 µM
Cc1cn2c(CCc3ccccc3)c(CC(C)C)c(C(=O)C(N)=O)c2c(OCC(=O)O)n1 [Compound I-4]	202 to 203				PGE2 production [5]: 35.3 ± 40.2 %; Oleic acid release [6]: 13.8 ± 1.8 %
CCCCc1c(C(=O)C(N)=O)c2c(OCC(=O)O)nc(C)cn2c1Cc1ccccc1 [Compound I-5]	205 to 207				
Cc1cn2c(Cc3ccccc3)c(Cc3ccccc3)c(C(=O)C(N)=O)c2c(OCC(=O)O)n1 [Compound I-7]	258 to 260				
Cc1cc(OCC(=O)O)c2c(C(=O)C(N)=O)c(CC(C)C)c(Cc3ccccc3)n2n1 [Compound I-9]	245 to 247	> 1	> 1	> 0.7	IC50 [2, 9]: 0.022 µM
CC(C)Cc1c(C(=O)C(N)=O)c2c(OCC(=O)O)cccc2n1Cc1ccc(F)cc1 [Compound I-11]	172 to 173.5	> 1	> 1	> 0.7	IC50 [2]: 0.012 µM
CC(C)Cc1c(C(=O)C(N)=O)c2c(OCC(=O)O)cccc2n1CC1CCCCC1 [Compound I-12]	195.5 to 197	> 1	> 1	> 0.7	IC50 [2]: 0.032 µM
Cc1cc(OCC(=O)O)c2c(C(=O)C(N)=O)c(CC(C)C)n(Cc3ccccc3)c2c1 [Compound I-13]	220 to 221.5	> 1	> 1	> 0.7	IC50 [2]: 0.028 µM
CC(C)Cc1c(C(=O)C(N)=O)c2c(OCC(=O)O)cccc2n1-c1ccccc1 [Compound I-14]	200.5 to 202				
Cc1cn2c(Cc3ccccc3)c(CC(C)C)c(C(=O)C(N)=O)c2c(OCC(=O)NS(=O)(=O)c2ccccc2)n1 [Compound I-15]	193 to 195	> 1	> 1	> 0.7	IC50 [2, 9]: 0.037 µM
Cc1cn2c(Cc3ccccc3)c(CC(C)C)c(C(=O)C(N)=O)c2c(OCC(=O)NS(C)(=O)=O)n1 [Compound I-16]	211 to 212				
CCS(=O)(=O)NC(=O)COc1nc(C)cn2c(Cc3ccccc3)c(CC(C)C)c(C(=O)C(N)=O)c12 [Compound I-17]	214 to 215				
CCCS(=O)(=O)NC(=O)COc1nc(C)cn2c(Cc3ccccc3)c(CC(C)C)c(C(=O)C(N)=O)c12 [Compound I-18]	205 to 207				
Cc1cn2c(Cc3ccccc3)c(CC(C)C)c(C(=O)C(N)=O)c2c(OCC(=O)NS(=O)(=O)C(C)C)n1 [Compound I-19]	196 to 198				
CC(C)Cc1c(C(=O)C(N)=O)c2c(OCC(=O)NS(=O)(=O)c3ccccc3)cccc2n1Cc1ccccc1 [Compound I-21]					PGE2 production [5]: −6.6 ± 7.1 %; IC50 [2]: 0.008 µM; Oleic acid release [6]: 11.8 ± 0.6 %
CC(C)Cc1c(C(=O)C(N)=O)c2c(OCC(=O)NS(=O)(=O)c3ccccc3)cccc2n1Cc1ccc(F)cc1 [Compound I-22]	172 to 173				inhibition at 10 µM [7]: 91.7%; IC50 [1]: > 1 µM; IC50 [2]: 0.008 µM; IC50 [3]: > 1 µM; IC50 [4]: > 0.7 µM
CC(C)Cc1c(C(=O)C(N)=O)c2c(OCC(=O)NS(C)(=O)=O)cccc2n1Cc1ccccc1 [Compound I-23]		> 1	> 1	> 0.7	PGE2 production [5]: 9.0 ± 28.1 %; IC50 [2]: 0.006 µM; Oleic acid release [6]: −2.0 ± 5.1 %
Cc1cc(OCC(=O)NS(=O)(=O)c2ccccc2)c2c(C(=O)C(N)=O)c(CC(C)C)n(Cc3ccccc3)c2c1 [Compound I-24]	145 to 147	> 1	> 1	> 0.7	IC50 [2]: 0.023 µM
Cc1cc(OCC(=O)NS(C)(=O)=O)c2c(C(=O)C(N)=O)c(CC(C)C)n(Cc3ccccc3)c2c1 [Compound I-25]	211 to 214	> 1	> 1	> 0.7	IC50 [2]: 0.007 µM
CC(C)Cc1c(C(=O)C(N)=O)c2c(OCC(=O)NS(=O)(=O)C(F)(F)F)cccc2n1Cc1ccccc1 [Compound I-30]					inhibition at 10 µM ([7]; compound 10 μM, human LDL 0.5 mg/mL, 10 nmol/L human type X sPLA2, 4 hr at 37° C.): 97.5%
Cc1cc(OCC(=O)NS(=O)(=O)c2ccccc2)c2c(C(=O)C(N)=O)c(CC(C)C)c(Cc3ccccc3)n2n1 [Compound I-32]		> 1	> 1	> 0.7	IC50 [2, 9]: 0.046 µM
CC(C)Cc1c(CC(N)=O)c2c(OCC(=O)NS(=O)(=O)C(C)C)cccc2n1Cc1ccccc1 [Compound I-34]	189 to 190				
Cc1cn2c(Cc3ccccc3)c(CC(C)C)c(CC(N)=O)c2c(OCC(=O)NS(C)(=O)=O)n1 [Compound I-35]	188 to 190				
Cc1cn2c(Cc3ccccc3)c(CC(C)C)c(CC(N)=O)c2c(OCC(=O)NS(=O)(=O)C(C)C)n1 [Compound I-36]	162 to 163				
